Test results: PMC7232190, “FDA-Approved Drugs Efavirenz, Tipranavir, and Dasabuvir Inhibit Replication of Multiple Flaviviruses in Vero Cells” (Microorganisms, 2020)

Key:
[1] = tested on: HCV genotype 1a replicon; parameters: method as in PMID 25534735; details: HCV subgenomic replicon; cited from earlier work
[2] = tested on: ZIKV (strain MR-766); assay: Anti-ZIKV activity in a simultaneous treatment assay, plaque assay, Vero cells; type: cell-based, Zika virus; details: 50 µM, 48 h
[3] = Cytotoxicity assay (Cell Counting Kit-8); type: cell-based; details: African green monkey; Vero cells, 72 h treatment, 0-100 µM
Description: (§1) For detailed cytotoxicity studies, Vero, HBCA, and UKF-NB-4 cells were seeded onto 96-well plates at a density of 10,000 cells per well and incubated for 24 h at 37 °C before being used in the experiment to form a confluent monolayer. After the incubation, tested compounds were added to the cells at concentrations of 0, 3.125, 6.25, 12.5, 25, 50, 75, and 100 µM, and treated under the same regime as during antiviral testing; i.e., pretreatment for 24 h with culture medium containing appropriate drug concentrations, then the medium was exchanged with fresh compound-containing medium. […] The 50% cytotoxic concentration (CC50) values, representing the concentration of compound that reduced cell viability by 50%, were calculated using GraphPad Prism (version 7.04, GraphPad Software, San Diego, CA, USA) as a nonlinear regression (inhibitor vs. normalized response, variable slope).

[4] = tested on: ZIKV (strain MR-766); assay: Anti-ZIKV activity in a post-treatment assay, plaque assay, Vero cells; type: cell-based, Zika virus; details: 50 µM, 48 h
[5] = tested on: HCV genotype 1b replicon; parameters: method as in PMID 25534735; details: HCV subgenomic replicon; cited from earlier work
[6] = tested on: WNV (13-104); assay: microbe, parasite or virus in culture; type: cell-based, West Nile virus; details: Vero cells; for EC50: West Nile virus, pretreatment 24 h, 48 h incubation, plaque assay
[7] = tested on: TBEV (Hypr); assay: microbe, parasite or virus in culture; type: cell-based, tick-borne encephalitis virus; details: for EC50: Tick-borne encephalitis virus, Vero
[8] = tested on: ZIKV (strain MR-766); assay: Inhibition of ZIKV-mediated cytopathic effect in a simultaneous treatment assay, Vero cells; details: 50 µM, 48 h
[9] = tested on: ZIKV (Paraiba_01); assay: Anti-ZIKV activity in human neural cells, pretreatment assay, HBCA cells; type: cell-based, Zika virus; details: 48 h
[10] = tested on: UKF-NB-4 cells; assay: Cytotoxicity assay (Cell Counting Kit-8); type: cell-based, Human
Description: as §1

[11] = Cytotoxicity assay (Cell Counting Kit-8); type: cell-based, Human; details: human, 72 h treatment, 0-100 µM
Description: as §1

[12] = tested on: HBCA cells; assay: Cytotoxicity assay (Cell Counting Kit-8); type: cell-based, Human
Description: as §1

[13] = tested on: ZIKV (MR-766); assay: microbe, parasite or virus in culture; type: cell-based, Zika virus; details: Vero cells; for EC50: Zika virus, pretreatment 24 h, 48 h incubation, plaque assay
[14] = tested on: flaviviral surface E antigen (all VBFs tested); assay: Immunofluorescence staining of viral antigen in infected Vero cells; type: cell-based; details: 48 h p.i., 0, 40, 50 µM dasabuvir or efavirenz, 0, 75, 100 µM tipranavir
Description: The results obtained from antiviral assays were confirmed using a cell-based flavivirus immunostaining assay with a mouse monoclonal antibody that specifically recognizes the flavivirus group surface antigen, as described previously. Briefly, Vero cells seeded onto 96-well plates were treated with the test compound (0, 40, or 50 μM dasabuvir or efavirenz; 0, 75, or 100 μM tipranavir) and infected with the individual viruses at a multiplicity of infection of 0.1. After incubation at 37 °C for 48 h, the cell monolayers were fixed with cold acetone-methanol (1:1), blocked with 10% fetal bovine serum, and incubated with the flavivirus antibody (1:250; Sigma-Aldrich, Prague, Czech Republic). After washing, the cells were labeled with an anti-mouse goat secondary antibody conjugated with fluorescein isothiocyanate (FITC; 1:500) and counterstained with DAPI (4′,6-diamidino-2-phenylindole; 1 μg/mL) to allow visualization of the cell nuclei. The fluorescence signal was recorded with an Olympus IX71 epifluorescence microscope and processed by ImageJ software.

[15] = tested on: WNV (Eg101); assay: microbe, parasite or virus in culture; type: cell-based, West Nile virus; details: Vero cells; for EC50: pretreatment 24 h, 48 h incubation, plaque assay
[16] = tested on: ZIKV (Paraiba_01); assay: microbe, parasite or virus in culture; type: cell-based, Zika virus; details: Vero cells; for EC50: Zika virus, pretreatment 24 h, 48 h incubation, plaque assay
[17] = tested on: ZIKV (Paraiba_01); assay: Anti-ZIKV activity in human neural cells, pretreatment assay, UKF-NB-4 cells; type: cell-based, Zika virus; details: 48 h
[18] = tested on: HIV; parameters: method as in PMID 21041916, PMID 18158073; details: H9 cells; read-out: EC90 (anti-HIV activity); cited from earlier work

Structure (SMILES) | effect on ZIKV titer in the culture [2] | CC50 at 72 h [3] | anti-ZIKV effect, drug applied 2 h post-infection [4] | Selectivity Index (SI) (CC50/EC50) [6] | EC50 [6] | Selectivity Index (SI) (CC50/EC50) [7] | EC50 [7] | viability of the infected cells compared to uninfected controls (inhibition of ZIKV-mediated CPE) [8] | highest non-toxic (>90% viability of the treated cells) concentration [10] | CC50 at 72 h ([11]; HBCA cells) | CC50 at 72 h ([11]; UKF-NB-4 cells) | highest non-toxic (>90% viability of the treated cells) concentration [12] | Selectivity Index (SI) (CC50/EC50) [13] | EC50 [13] | surface E antigen expression by all VBFs tested [14] | Selectivity Index (SI) (CC50/EC50) [15] | EC50 ([15]; West Nile virus, Vero) | Selectivity Index (SI) (CC50/EC50) [16] | EC50 [16] | other results
COc1c(-c2ccc3cc(NS(C)(=O)=O)ccc3c2)cc(-n2ccc(=O)[nH]c2=O)cc1C(C)(C)C [Dasabuvir, dasabuvir] | reduced ZIKV titer | 102 µM | even stronger compared to 7-deaza-2′-C-methyladenosine | 6.48 | 15.7 µM | 6.67 | 15.2 µM | > 90% | 6.25 µM | 26 µM | 21.3 µM | 12.5 µM | 6.54 | 15.5 µM | dose-dependent inhibition | 5.60 | 18.8 µM | 6.29 | 16.1 µM | EC50 [1]: 0.0077 µM; EC50 [5]: 0.0018 µM; effect on ZIKV replication in the cell culture ([9]; 12.5 µM): completely suppressed ZIKV replication; EC50 [15]: 18.1 µM; virus titer reduction in comparison with mock-treated control cells ([17]; highest concentration of the drug): approximately 1 log10 pfu/mL
O=C1Nc2ccc(Cl)cc2[C@@](C#CC2CC2)(C(F)(F)F)O1 [Efavirenz, efavirenz] | reduced ZIKV titer | 73.6 µM | antiviral effect | 4.50 | 16.3 µM | 4.63 | 15.9 µM | > 90% | 12.5 µM | 16.7 µM | 31.9 µM | 3.125 µM | 2.41 | 30.4 µM | dose-dependent inhibition | 3.35 | 21.9 µM | 2.85 | 25.8 µM | antiviral effect against ZIKV ([9]; any concentration tested): No antiviral effect; antiviral effect against ZIKV ([17]; any concentration tested): No antiviral effect
CCC[C@@]1(CCc2ccccc2)CC(O)=C([C@H](CC)c2cccc(NS(=O)(=O)c3ccc(C(F)(F)F)cn3)c2)C(=O)O1 [Tipranavir, tipranavir] | reduced ZIKV titer | > 100 µM | even stronger compared to 7-deaza-2′-C-methyladenosine | 5.58 | 24.2 µM | 3.79 | 35.5 µM | > 90% | 50 µM | 34 µM | 89.2 µM | 12.5 µM | 4.45 | 30.3 µM | dose-dependent inhibition | 4.12 | 32.7 µM | – | 29.9 µM | reduction of ZIKV replication in the HBCA culture ([9]; 12.5 µM): approx. 10^3 fold; EC90 [18]: 0.1 µM; antiviral effect against ZIKV (virus titer reduction) ([17]; 50 µM): approx. 10^3 fold
C[C@@H]1CCO[C@H]2Cn3cc(C(=O)NCc4ccc(F)cc4F)c(=O)c(O)c3C(=O)N12 [dolutegravir] | – | – | – | – | – | – | – | > 90% | – | – | – | – | – | – | – | – | – | – | – | –
